Active and inactive are the calls of the source. No rule for the calls is given here.
Tested on: T. cruzi-infected H9C2 cardiomyocytes, high-content imaging
Assay: anti-T. cruzi activity in infected cardiomyocytes – imaging, H9C2 host cardiomyocytes, host toxicity (AID 1159565);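 also: infected cells incubated 72 h after plating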
[1] = measured here: H9C2 host cell toxicity
[2] = measured here: amastigotes per cell

Compound	IC50	IC50 [1]	IC50 [2]
CC(=Cc1ccccc1)CN1CCC(=O)N(Cc2cccnc2)CC1	0.5 µM	> 50 µM	0.5 µM
COc1ccc(C2CC(c3ccc(NS(C)(=O)=O)cc3)=NN2C(=O)c2cccs2)cc1OC (stereo not given)	32 µM	> 50 µM	16 µM
c1ccc(-c2nc(NCc3ccco3)c3ccccc3n2)nc1	3.2 µM	2 µM	4 µM
O=C(Nc1nc2ccccc2[nH]1)c1c(O)c2cccc3c2n(c1=O)CC3	16 µM	10 µM	25 µM
O=C(C1CCCCC1)N1CCN(c2nnc(-c3ccccc3)c3ccccc23)CC1	0.63 µM	> 50 µM	0.4 µM
CNC(=O)C1Cc2ccccc2N1C(=O)Cc1ccc(OC)cc1 (stereo not given)	> 50 µM (inactive)	> 50 µM	> 50 µM
Cc1ccc2ccc(C(Nc3ccccn3)c3cccnc3)c(O)c2n1 (stereo not given)	0.2 µM	32 µM	0.2 µM
Cc1cc(C)n(-c2nc(NC(C)(C)C)nc(N3CCOCC3)n2)n1	10 µM	1.3 µM	3.2 µM
C=CCn1nc([N+](=O)[O-])nc1Oc1ccc(Cl)cc1Cl	0.25 µM	> 50 µM	0.13 µM
COc1ccc(-c2cnc(NC(=O)c3cc(-c4ccccn4)n[nH]3)n2C)cc1	5 µM	> 50 µM	4 µM
Cc1cccc(NS(=O)(=O)c2ccc3c(c2)C(=O)c2cc(S(=O)(=O)Nc4cccc(C)c4C)ccc2-3)c1C	0.4 µM	32 µM	0.4 µM
O=C1COC(c2ccccc2)(c2ccccc2)CN1C1CCN(Cc2ccc(-n3ccnc3)cc2)CC1	2 µM	32 µM	0.5 µM
CCCCn1c(=O)c2c(N)onc2n(CCCC)c1=O	32 µM	25 µM	25 µM
CN(C)Cc1ccc(N2CCC(NS(=O)(=O)c3ccc(Cl)cc3)CC2)cc1	0.32 µM	13 µM	0.25 µM
Cc1ccc(NC(=O)c2ccnc(N3CCCC3)c2)cc1-c1ccsc1C(N)=O	13 µM	> 50 µM	7.9 µM
CN(C)c1ncc(-c2cncn2CCOc2ccc(Cl)cc2)cn1	0.25 µM	> 50 µM	0.2 µM
O=C(NCCNc1noc(-c2ccc([N+](=O)[O-])cc2)n1)c1ccc(Cl)cc1	> 50 µM (inactive)	> 50 µM	1.3 µM
CC(=O)NCCNc1cc(-c2ccnc(Nc3cccc(Cl)c3)n2)ccn1	1.6 µM	0.4 µM	0.16 µM
CC(C)(C)C(Cn1ccnc1)NC(=O)c1ccc2nc(C3CC3)oc2c1 (stereo not given)	0.1 µM	> 50 µM	0.079 µM
CCc1c(C)nc(-n2nc(C)cc2NC(=O)COc2ccccc2F)[nH]c1=O	0.63 µM	2.5 µM	0.16 µM
Cc1[nH]c2ccccc2c(=O)c1Cc1c(C)[nH]c2ccccc2c1=O	3.2 µM	> 50 µM	1 µM
O=C(CN1CCC2(O)CCCCC2C1c1ccc2c(c1)OCO2)Nc1ccc(Cl)cc1Cl (stereo not given)	5 µM	> 50 µM	3.2 µM
CCCC(=O)N(Cc1ccccn1)c1nc2ccccc2s1	0.1 µM	> 50 µM	0.079 µM
OC1CCC(Nc2nccc(-c3sc(C4CCOCC4)nc3-c3ccc(F)c(F)c3)n2)CC1 (stereo not given)	0.32 µM	32 µM	0.2 µM

Compound	IC50	IC50 [1]	IC50 [2]
COc1cccc(-c2c(C)nn(-c3nc(N)nc(-c4ccccn4)n3)c2N)c1	2 µM	> 50 µM	0.5 µM
Cc1ccc(-c2csc(NC(=O)C=Cc3ccc(S(=O)(=O)N4CCOCC4)cc3)n2)o1	10 µM	32 µM	10 µM
c1ccc(Nc2nc(-c3ccccn3)cc(N3CCOCC3)n2)cc1	> 50 µM (inactive)	0.63 µM	25 µM
Cc1ccccc1NS(=O)(=O)c1ccc2[nH]cc(C(=O)NC3CCCCC3)c(=O)c2c1	16 µM	25 µM	10 µM
Cc1cc(-c2cccc3ccccc23)nc2nc(N)nc(N)c12	> 50 µM (inactive)	> 50 µM	32 µM
CC(C)Oc1cccc(N2CCC(C(=O)N3CCCN(C(C)C)CC3)CC2)c1	0.63 µM	> 50 µM	0.25 µM
Cc1ccc2nc(N(Cc3cccnc3)C(=O)CCc3ccccc3)sc2c1	0.04 µM	> 50 µM	0.032 µM
O=C(COc1ccccc1)Nc1ccccc1C(=O)Nc1nccs1	> 50 µM (inactive)	> 50 µM	> 50 µM
O=C(CSc1ccc(F)cc1)N[C@@H](Cc1cnc[nH]1)C(=O)NCCc1ccccc1	0.5 µM	> 50 µM	0.5 µM
Cc1[nH]nc(Nc2ccnc3[nH]ccc23)c1C	> 50 µM (inactive)	> 50 µM	> 50 µM
CC1=C(C(=O)Nc2ccc(Cl)cc2)C(c2ccncc2)n2ncc(C(=O)Nc3ccccc3)c2N1 (stereo not given)	0.02 µM	> 50 µM	0.02 µM
O=C(Nc1cccc(Cl)c1)N1CCCCC1c1cccnc1 (stereo not given)	0.2 µM	> 50 µM	0.2 µM
O=C(NCc1ccncc1)c1ccccc1N1CCCN(C(=O)Cc2ccc(F)c(F)c2)CC1	0.079 µM	> 50 µM	0.079 µM
COc1ccc(-c2nc3ccncc3c(=O)n2CCOc2ccccc2)cc1	0.4 µM	> 50 µM	0.4 µM
CC(=O)Nc1cccc(Nc2ncnc3nc[nH]c23)c1	40 µM	> 50 µM	25 µM
O=C(Nc1ccc(C(F)(F)F)cc1)Nc1cccc([N+](=O)[O-])c1	1.3 µM	5 µM	0.79 µM
Cc1cc(Br)sc1CNCCCNc1cc(=O)c2ccccc2[nH]1	0.79 µM	25 µM	0.5 µM
COc1cccc(-c2cc(C(F)(F)F)nc(-n3ccc([N+](=O)[O-])n3)n2)c1	0.4 µM	> 50 µM	0.2 µM
O=C(CSc1nnc(-c2ccc3c(c2)OCO3)o1)N(Cc1ccco1)CC(F)(F)F	3.2 µM	> 50 µM	2.5 µM
COCCn1cnc2cc(NC(=O)C3CCCCC3)cc(C(=O)N3CCc4sccc4C3)c21	32 µM	> 50 µM	20 µM
CCC(=O)Nc1ccccc1C(=O)Nc1ccccn1	> 50 µM (inactive)	> 50 µM	> 50 µM
Cc1cn[nH]c1C1CCCN(Cc2nc3ccccc3n2C)C1 (stereo not given)	20 µM	> 50 µM	10 µM
COC(=O)c1ccc(-c2cnc3ccc(NCc4ccccn4)nn23)cc1	7.9 µM	> 50 µM	5 µM
Cc1c(Nc2cc(C3CC3)[nH]n2)ccc(C#N)c1Cl	25 µM	10 µM	16 µM

Compound	IC50	IC50 [1]	IC50 [2]
COc1cccc(CN(C)Cc2nc(N)c3c(C)c(C)sc3n2)c1	16 µM	> 50 µM	16 µM
CCN(Cc1nc2ccc(C(=O)N3CCN(c4ncccn4)CC3)cc2[nH]1)C1CCCc2cccnc21 (stereo not given)	13 µM	16 µM	2 µM
NC(N)=Nc1nc(-c2ccc(NC(N)=NCCN3CCCC3)cc2)cs1	> 50 µM (inactive)	> 50 µM	> 50 µM
COc1ccc2ncc(Cl)c(CCN3CC[C@H](NCc4cc5c(cn4)OCS5)[C@@H](O)C3)c2n1	0.16 µM	10 µM	0.1 µM
Cc1ccc(S(C)(=O)=O)cc1Nc1nccc(-c2sc(N)nc2-c2ccccc2)n1	0.13 µM	5 µM	0.079 µM
CCn1c(-c2nonc2N)nc2c([C@@H](C)O)ncc(O[C@H](CN)c3ccccc3)c21	10 µM	0.63 µM	7.9 µM
Cc1ccc(NC(=O)c2ccc(Cl)c(NC(=O)c3ccc([N+](=O)[O-])cc3)c2)cc1	0.5 µM	> 50 µM	0.2 µM
O=C(Nc1nc(-c2ccccn2)cs1)c1ccccc1-n1cnnn1	3.2 µM	5 µM	2 µM
N#CN1CC[C@@H](NC(=O)Nc2ccccc2Oc2ccccc2)C1	4 µM	20 µM	5 µM
COc1cccc2sc(CN(C)C(=O)C3CNCCN3c3ccc(F)cc3)c(C)c12 (stereo not given)	0.2 µM	7.9 µM	0.16 µM
NC(=O)c1ccc(-c2cccc(OCCN3CCN(C4CCCCC4)CC3)c2)cc1	1.6 µM	> 50 µM	0.79 µM
NC(=O)c1ccsc1NC(=O)c1ccc([N+](=O)[O-])s1	0.13 µM	> 50 µM	0.1 µM
Cc1c(C(=O)NCCCCn2ccnc2)oc2c(C)cccc12	0.5 µM	> 50 µM	0.5 µM
Clc1ccc(OCCN2CCCCC2c2cccnc2)c(Cl)c1 (stereo not given)	0.2 µM	> 50 µM	0.16 µM
c1ccc2c(CCOc3nccnc3-c3ccncc3)c[nH]c2c1	0.16 µM	> 50 µM	0.16 µM
CCN(CC)S(=O)(=O)c1ccc(C(=O)Nc2cc(C)nn2-c2nc(C)c(C)c(=O)[nH]2)cc1	1.6 µM	> 50 µM	0.32 µM
COc1ccc(-c2csc(NC(=O)c3ccc([N+](=O)[O-])s3)n2)cc1	0.25 µM	32 µM	0.2 µM
O=C(c1cnn(-c2ccccc2)n1)N1CCCC(n2ccnc2)C1 (stereo not given)	0.079 µM	> 50 µM	0.063 µM
Cc1ccc(Nc2nc(C3CCCN3Cc3ccn[nH]3)cs2)nc1 (stereo not given)	2 µM	10 µM	2 µM
O=C(Nc1ccccc1C(=O)Nc1ccccn1)c1ccco1	> 50 µM (inactive)	> 50 µM	> 50 µM
O=C(NCc1ccc(-n2cccc2)cc1)c1nc(Cn2ccc([N+](=O)[O-])n2)no1	2.5 µM	> 50 µM	1.3 µM
Cc1ccccc1CNC(=O)CN(Cc1ccccn1)Cc1ccccn1	16 µM	> 79 µM	6.3 µM

From PubChem BioAssay AID1159565 (GlaxoSmithKline (GSK), 2015)
